Test results published in patent US20230406885A1, “CYCLIC PEPTIDES FOR TRAPPING INTERLEUKIN-1 BETA” (MERCK SHARP & DOHME LLC, priority 2022, published 2023).
*1 amine or outer side, *2 acyl side, *3 side chain or, on linkers, in order; H or OH if unused. Where a SMILES comes first, the peptide text is derived from it. [ ]: non-standard residue; d: D form. TyrEtNAc = L-tyrosine O-ethyl acetamide, (S)-3-(4-(2-acetamidoethoxy)phenyl)-2-aminopropanoic acid, CC(=O)NCCOc1ccc(C[C@H](N[*:1])C(=O)[*:2])cc1; 3AzaPhe4AcPip = (S)-3-(6-(4-acetylpiperazin-1-yl)pyridin-3-yl)-2-aminopropanoic acid, CC(=O)N1CCN(c2ccc(C[C@H](N[*:1])C(=O)[*:2])cn2)CC1; 3Pal4Ph4CO2H = (S)-4-(5-(2-amino-2-carboxyethyl)pyridin-2-yl)benzoic acid, O=C([C@H](Cc1ccc(-c2ccc(C(=O)[*:3])cc2)nc1)N[*:1])[*:2]; Phe(4-(4-Ac-piperazinyl)) = CC(=O)N1CCN(c2ccc(C[C@H](N)C(=O)O)cc2)CC1; Pro(trans-4-NH2) = O=C([C@@H]1C[C@@H](N[*:3])CN1[*:1])[*:2]; Bip(4'-COOH) = N[C@@H](Cc1ccc(-c2ccc(C(=O)O)cc2)cc1)C(=O)O; 1Nal(3S-Me) = C[C@@H](c1cccc2ccccc12)[C@H](N)C(=O)O; Ala(indolin-1-yl) = N[C@@H](CN1CCc2ccccc21)C(=O)O; hPhe(4-CF3) = N[C@@H](CCc1ccc(C(F)(F)F)cc1)C(=O)O; Trp(6-Cl) = N[C@@H](Cc1c[nH]c2cc(Cl)ccc12)C(=O)O; Phe(4-COOH) = N[C@@H](Cc1ccc(C(=O)O)cc1)C(=O)O; Trp(6-F) = N[C@@H](Cc1c[nH]c2cc(F)ccc12)C(=O)O; Trp(7-aza) = N[C@@H](Cc1c[nH]c2ncccc12)C(=O)O; X14 = C[N+](C)(C)CC[C@@H](N[*:1])C(=O)[*:2]; h3Pal(5-CN) = N#Cc1cncc(CC[C@H](N)C(=O)O)c1; Pro(4R-NH2) = N[C@H]1CN[C@H](C(=O)O)C1; AEF = NCCOc1ccc(C[C@H](N)C(=O)O)cc1; hTyr = N[C@@H](CCc1ccc(O)cc1)C(=O)O; hCha = N[C@@H](CCC1CCCCC1)C(=O)O; 4Pal = N[C@@H](Cc1ccncc1)C(=O)O; dDab = NCC[C@@H](N)C(=O)O; Orn = NCCC[C@H](N)C(=O)O; dNMeA = CN[C@H](C)C(=O)O; Dab = NCC[C@H](N)C(=O)O; Dap = NC[C@H](N)C(=O)O

B1: SEQ ID NO: 10 (peptide)
peptide: cyclo([3Pal4Ph4CO2H]W[Phe(4-COOH)]G[Pro(trans-4-NH2)][1Nal(3S-Me)]D[dNMeA]G[3Pal4Ph4CO2H]W[Dap][dA][hTyr])
SMILES: C[C@@H]1C(=O)NCC(=O)N[C@@H](Cc2ccc(-c3ccc(C(=O)O)cc3)nc2)C(=O)N[C@@H](Cc2c[nH]c3ccccc23)C(=O)N[C@@H](CN)C(=O)N[C@H](C)C(=O)N[C@@H](CCc2ccc(O)cc2)C(=O)N[C@@H](Cc2ccc(-c3ccc(C(=O)O)cc3)nc2)C(=O)N[C@@H](Cc2c[nH]c3ccccc23)C(=O)N[C@@H](Cc2ccc(C(=O)O)cc2)C(=O)NCC(=O)N2C[C@H](N)C[C@H]2C(=O)N[C@@H]([C@@H](C)c2cccc3ccccc23)C(=O)N[C@@H](CC(=O)O)C(=O)N1C
B2: SEQ ID NO: 101 (peptide)
peptide: cyclo([TyrEtNAc]W[Phe(4-COOH)]G[Pro(trans-4-NH2)][1Nal(3S-Me)]D[dNMeA]G[Bip(4'-COOH)][4Pal][Dab][dA][hTyr])
SMILES: CC(=O)NCCOc1ccc(C[C@@H]2NC(=O)[C@H](CCc3ccc(O)cc3)NC(=O)[C@@H](C)NC(=O)[C@H](CCN)NC(=O)[C@H](Cc3ccncc3)NC(=O)[C@H](Cc3ccc(-c4ccc(C(=O)O)cc4)cc3)NC(=O)CNC(=O)[C@@H](C)N(C)C(=O)[C@H](CC(=O)O)NC(=O)[C@H]([C@@H](C)c3cccc4ccccc34)NC(=O)[C@@H]3C[C@@H](N)CN3C(=O)CNC(=O)[C@H](Cc3ccc(C(=O)O)cc3)NC(=O)[C@H](Cc3c[nH]c4ccccc34)NC2=O)cc1
B3: SEQ ID NO: 102 (peptide)
peptide: cyclo([TyrEtNAc]W[Phe(4-COOH)]G[Pro(trans-4-NH2)][1Nal(3S-Me)]D[dNMeA]G[Bip(4'-COOH)][4Pal]G[dDab][h3Pal(5-CN)])
SMILES: CC(=O)NCCOc1ccc(C[C@@H]2NC(=O)[C@H](CCc3cncc(C#N)c3)NC(=O)[C@@H](CCN)NC(=O)CNC(=O)[C@H](Cc3ccncc3)NC(=O)[C@H](Cc3ccc(-c4ccc(C(=O)O)cc4)cc3)NC(=O)CNC(=O)[C@@H](C)N(C)C(=O)[C@H](CC(=O)O)NC(=O)[C@H]([C@@H](C)c3cccc4ccccc34)NC(=O)[C@@H]3C[C@@H](N)CN3C(=O)CNC(=O)[C@H](Cc3ccc(C(=O)O)cc3)NC(=O)[C@H](Cc3c[nH]c4ccccc34)NC2=O)cc1
B4: SEQ ID NO: 100 (peptide)
peptide: cyclo([TyrEtNAc]W[Phe(4-COOH)]G[Pro(trans-4-NH2)][1Nal(3S-Me)]D[dNMeA]G[Bip(4'-COOH)][4Pal][Dab][dA][hPhe(4-CF3)])
SMILES: CC(=O)NCCOc1ccc(C[C@@H]2NC(=O)[C@H](CCc3ccc(C(F)(F)F)cc3)NC(=O)[C@@H](C)NC(=O)[C@H](CCN)NC(=O)[C@H](Cc3ccncc3)NC(=O)[C@H](Cc3ccc(-c4ccc(C(=O)O)cc4)cc3)NC(=O)CNC(=O)[C@@H](C)N(C)C(=O)[C@H](CC(=O)O)NC(=O)[C@H]([C@@H](C)c3cccc4ccccc34)NC(=O)[C@@H]3C[C@@H](N)CN3C(=O)CNC(=O)[C@H](Cc3ccc(C(=O)O)cc3)NC(=O)[C@H](Cc3c[nH]c4ccccc34)NC2=O)cc1
B5: SEQ ID NO: 1 (peptide)
peptide: cyclo([3AzaPhe4AcPip]W[Phe(4-COOH)]G[Pro(trans-4-NH2)][1Nal(3S-Me)]D[dNMeA]G[Bip(4'-COOH)][4Pal][Dap][dA][h3Pal(5-CN)])
SMILES: CC(=O)N1CCN(c2ccc(C[C@@H]3NC(=O)[C@H](CCc4cncc(C#N)c4)NC(=O)[C@@H](C)NC(=O)[C@H](CN)NC(=O)[C@H](Cc4ccncc4)NC(=O)[C@H](Cc4ccc(-c5ccc(C(=O)O)cc5)cc4)NC(=O)CNC(=O)[C@@H](C)N(C)C(=O)[C@H](CC(=O)O)NC(=O)[C@H]([C@@H](C)c4cccc5ccccc45)NC(=O)[C@@H]4C[C@@H](N)CN4C(=O)CNC(=O)[C@H](Cc4ccc(C(=O)O)cc4)NC(=O)[C@H](Cc4c[nH]c5ccccc45)NC3=O)cn2)CC1

These molecules were tested against T1, Recombinant human IL-1β (Homo sapiens, UniProt P01584) (assay: IL-6 assay in MRC5 cells: inhibition of IL-1β induced IL-6 secretion (AlphaLISA)). Conditions: inhibition of IL-1β induced IL-6 secretion in MRC5 cells; read-out: MRC5 IC50.
T1 construct: purchased BioLegend 579404
Type: cell-based
Summary of the method: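 IL-1β at 2×EC80 in seeding medium (EMEM, 0.025% BSA) preincubated 1 h at ambient temperature with compound, then 3000 MRC5 cells/well added and incubated overnight at 37 °C, 5% CO2. IL-6 in conditioned medium quantified by AlphaLISA; IC50 from 4-parameter logistic fit.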

T1 sequence (P01584 117-269): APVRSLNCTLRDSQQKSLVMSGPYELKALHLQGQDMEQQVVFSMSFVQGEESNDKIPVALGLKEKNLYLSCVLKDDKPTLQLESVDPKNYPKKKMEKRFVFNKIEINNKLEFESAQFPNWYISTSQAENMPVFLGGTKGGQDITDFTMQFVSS

IC50 [nM] | Molecule
0.018 | CC(=O)NCCCC[C@@H]1NC(=O)[C@H](Cc2ccc(-c3ccc(C(=O)O)cc3)cc2)NC(=O)CNC(=O)[C@@H](C)N(C)C(=O)[C@H](CC(=O)O)NC(=O)[C@H]([C@@H](C)c2cccc3ccccc23)NC(=O)[C@@H]2C[C@@H](N)CN2C(=O)CNC(=O)[C@H](Cc2ccc(C(=O)O)cc2)NC(=O)[C@H](Cc2c[nH]c3ccccc23)NC(=O)[C@H](Cc2ccc(N3CCN(C(C)=O)CC3)cc2)NC(=O)[C@H](CCc2cncc(C#N)c2)NC(=O)[C@@H](C)NC(=O)[C@H](CC(C)C)NC1=O [Example 208] (cyclo([Phe(4-(4-Ac-piperazinyl))]W[Phe(4-COOH)]G[Pro(4R-NH2)][1Nal(3S-Me)]D[dNMeA]G[Bip(4'-COOH)]K(Ac)L[dA][h3Pal(5-CN)]))
0.009 | CC(=O)N1CCN(c2ccc(C[C@@H]3NC(=O)[C@H](CCC4CCCCC4)NC(=O)[C@@H](C)NC(=O)[C@H](CC(C)C)NC(=O)[C@H](CCCN)NC(=O)[C@H](Cc4ccc(-c5ccc(C(=O)O)cc5)cc4)NC(=O)CNC(=O)[C@@H](C)N(C)C(=O)[C@H](CC(=O)O)NC(=O)[C@H]([C@@H](C)c4cccc5ccccc45)NC(=O)[C@@H]4C[C@@H](N)CN4C(=O)CNC(=O)[C@H](Cc4ccc(C(=O)O)cc4)NC(=O)[C@H](Cc4c[nH]c5ccccc45)NC3=O)cc2)CC1 [Example 209] (cyclo([Phe(4-(4-Ac-piperazinyl))]W[Phe(4-COOH)]G[Pro(4R-NH2)][1Nal(3S-Me)]D[dNMeA]G[Bip(4'-COOH)][Orn]L[dA][hCha]))
0.02 | CC(=O)NCCOc1ccc(C[C@@H]2NC(=O)[C@H](CCC3CCCCC3)NC(=O)[C@@H](CCN)NC(=O)[C@H](CO)NC(=O)[C@H](Cc3c[nH]c4ncccc34)NC(=O)[C@H](Cc3ccc(-c4ccc(C(=O)O)cc4)cc3)NC(=O)CNC(=O)[C@@H](C)N(C)C(=O)[C@H](CC(=O)O)NC(=O)[C@H]([C@@H](C)c3cccc4ccccc34)NC(=O)[C@@H]3C[C@@H](N)CN3C(=O)CNC(=O)[C@H](Cc3ccc(C(=O)O)cc3)NC(=O)[C@H](Cc3c[nH]c4cc(Cl)ccc34)NC2=O)cc1 [Example 210] (cyclo([AEF](Ac)[Trp(6-Cl)][Phe(4-COOH)]G[Pro(4R-NH2)][1Nal(3S-Me)]D[dNMeA]G[Bip(4'-COOH)][Trp(7-aza)]S[dDab][hCha]))
0.027 | CC(=O)NCCOc1ccc(C[C@@H]2NC(=O)[C@H](CCc3ccc(O)cc3)NC(=O)[C@@H](CCN)NC(=O)CNC(=O)[C@H](CN3CCc4ccccc43)NC(=O)[C@H](Cc3ccc(-c4ccc(C(=O)O)cc4)cc3)NC(=O)CNC(=O)[C@@H](C)N(C)C(=O)[C@H](CC(=O)O)NC(=O)[C@H]([C@@H](C)c3cccc4ccccc34)NC(=O)[C@@H]3C[C@@H](N)CN3C(=O)CNC(=O)[C@H](Cc3ccc(C(=O)O)cc3)NC(=O)[C@H](Cc3c[nH]c4cc(F)ccc34)NC2=O)cc1 [Example 211] (cyclo([AEF](Ac)[Trp(6-F)][Phe(4-COOH)]G[Pro(4R-NH2)][1Nal(3S-Me)]D[dNMeA]G[Bip(4'-COOH)][Ala(indolin-1-yl)]G[dDab][hTyr]))
0.025 | CC(=O)NCCOc1ccc(C[C@@H]2NC(=O)[C@H](CCC3CCCCC3)NC(=O)[C@@H](CCN)NC(=O)[C@H](CO)NC(=O)[C@H](Cc3c[nH]c4ncccc34)NC(=O)[C@H](Cc3ccc(-c4ccc(C(=O)O)cc4)cc3)NC(=O)CNC(=O)[C@@H](C)N(C)C(=O)[C@H](CC(=O)O)NC(=O)[C@H]([C@@H](C)c3cccc4ccccc34)NC(=O)[C@@H]3C[C@@H](N)CN3C(=O)CNC(=O)[C@H](Cc3ccc(C(=O)O)cc3)NC(=O)[C@H](Cc3c[nH]c4cc(F)ccc34)NC2=O)cc1 [Example 212] (cyclo([AEF](Ac)[Trp(6-F)][Phe(4-COOH)]G[Pro(4R-NH2)][1Nal(3S-Me)]D[dNMeA]G[Bip(4'-COOH)][Trp(7-aza)]S[dDab][hCha]))
0.018 | CC(=O)NCCOc1ccc(C[C@@H]2NC(=O)[C@H](CCC3CCCCC3)NC(=O)[C@@H](CC[N+](C)(C)C)NC(=O)[C@H](CO)NC(=O)[C@H](Cc3c[nH]c4ncccc34)NC(=O)[C@H](Cc3ccc(-c4ccc(C(=O)O)cc4)cc3)NC(=O)CNC(=O)[C@@H](C)N(C)C(=O)[C@H](CC(=O)O)NC(=O)[C@H]([C@@H](C)c3cccc4ccccc34)NC(=O)[C@@H]3C[C@@H](N)CN3C(=O)CNC(=O)[C@H](Cc3ccc(C(=O)O)cc3)NC(=O)[C@H](Cc3c[nH]c4cc(F)ccc34)NC2=O)cc1 [Example 213] (cyclo([AEF](Ac)[Trp(6-F)][Phe(4-COOH)]G[Pro(4R-NH2)][1Nal(3S-Me)]D[dNMeA]G[Bip(4'-COOH)][Trp(7-aza)]S[X14][hCha]))
0.02 | CC(=O)NCCOc1ccc(C[C@@H]2NC(=O)[C@H](CCC3CCCCC3)NC(=O)[C@@H](CCN)NC(=O)CNC(=O)[C@H](Cc3c[nH]c4ncccc34)NC(=O)[C@H](Cc3ccc(-c4ccc(C(=O)O)cc4)cc3)NC(=O)CNC(=O)[C@@H](C)N(C)C(=O)[C@H](CC(=O)O)NC(=O)[C@H]([C@@H](C)c3cccc4ccccc34)NC(=O)[C@@H]3C[C@@H](N)CN3C(=O)CNC(=O)[C@H](Cc3ccc(C(=O)O)cc3)NC(=O)[C@H](Cc3c[nH]c4ccccc34)NC2=O)cc1 [Example 214] (cyclo([AEF](Ac)W[Phe(4-COOH)]G[Pro(4R-NH2)][1Nal(3S-Me)]D[dNMeA]G[Bip(4'-COOH)][Trp(7-aza)]G[dDab][hCha]))
0.024 | CC(=O)NCCOc1ccc(C[C@@H]2NC(=O)[C@H](CCc3ccc(O)cc3)NC(=O)[C@@H](CCN)NC(=O)CNC(=O)[C@H](Cc3c[nH]c4ncccc34)NC(=O)[C@H](Cc3ccc(-c4ccc(C(=O)O)cc4)cc3)NC(=O)CNC(=O)[C@@H](C)N(C)C(=O)[C@H](CC(=O)O)NC(=O)[C@H]([C@@H](C)c3cccc4ccccc34)NC(=O)[C@@H]3C[C@@H](N)CN3C(=O)CNC(=O)[C@H](Cc3ccc(C(=O)O)cc3)NC(=O)[C@H](Cc3c[nH]c4ccccc34)NC2=O)cc1 [Example 215] (cyclo([AEF](Ac)W[Phe(4-COOH)]G[Pro(4R-NH2)][1Nal(3S-Me)]D[dNMeA]G[Bip(4'-COOH)][Trp(7-aza)]G[dDab][hTyr]))

Each molecule was assayed against Recombinant human IL-1β (BioLegend 579404) (human, UniProt P01584 117-269) (assay: cell-based or functional assay). Conditions: not given.

MRC5 IC50 [nM] | Molecule
0.256 | B1
0.247 | B2
0.0421 | B3
0.274 | B4
0.0365 | B5
